# Results published in paper PMC5760531, “Action Potential Recording and Pro-arrhythmia Risk Analysis in Human Ventricular Trabeculae” (Frontiers in Physiology, 2018).
# Legend:
# [1] = system: human ventricular trabeculae; experiment: Action potential recording and pro-arrhythmic score analysis in human ventricular trabeculae (hVT);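 also: sharp microelectrode action potential recordings at 37°C in Tyrode-perfused trabeculae, 4 cumulative concentrations each applied 31 min, values averaged over last 30 APs, vehicle 0.1% DMSO as control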
# [2] = human free (unbound) effective therapeutic plasma concentration used to calculate multiples; cited from earlier work
# [3] = 1Hz, 1.6-FOLD free ETPC (0.006µM)
# [4] = 1Hz, 17-FOLD free ETPC (0.006µM)
# [5] = 1Hz, 167-FOLD free ETPC (0.006µM)
# [6] = 1Hz, 1667-FOLD free ETPC (0.006µM)
# [7] = 2Hz, 1.6-FOLD free ETPC (0.006µM)
# [8] = 2Hz, 17-FOLD free ETPC (0.006µM)
# [9] = 2Hz, 167-FOLD free ETPC (0.006µM)
# [10] = 2Hz, 1667-FOLD free ETPC (0.006µM)
smiles,measurement,setting,value
"COc1cc2nc(N(C)CCCNC(=O)C3CCCO3)nc(N)c2cc1OC (stereo not shown) [ALFUZOSIN, Alfuzosin]",AMAX,[1]; [3],110
same,AMAX percentage change compared to vehicle control,[1]; [3],2%
same,APD30,[1]; [3],163
same,APD30 percentage change compared to vehicle control,[1]; [3],4%
same,APD50,[1]; [3],214
same,APD50 percentage change compared to vehicle control,[1]; [3],4%
same,APD90,[1]; [3],287
same,APD90 percentage change compared to vehicle control,[1]; [3],3%
same,Alternans,[1]; [3],0.33
same,Alternans percentage change compared to vehicle control,[1]; [3],-14%
same,Beat Escape,[1]; [3],0
same,Beat Escape percentage change compared to vehicle control,[1]; [3],0%
same,EADs,[1]; [3],0
same,EADs percentage change compared to vehicle control,[1]; [3],0%
same,ERP,[1]; [3],0.42
same,ERP percentage change compared to vehicle control,[1]; [3],0%
same,Max Dispersion,[1]; [3],2.40
same,Max Dispersion percentage change compared to vehicle control,[1]; [3],28%
same,RMP,[1]; [3],-88
same,RMP percentage change compared to vehicle control,[1]; [3],3%
same,Refractoriness Escape,[1]; [3],0
same,Refractoriness Escape percentage change compared to vehicle control,[1]; [3],0%
same,STV,[1]; [3],0.30
same,STV percentage change compared to vehicle control,[1]; [3],9%
same,Triangulation,[1]; [3],123
same,Triangulation percentage change compared to vehicle control,[1]; [3],-1%
same,AMAX,[1]; [4],110
same,AMAX percentage change compared to vehicle control,[1]; [4],1%
same,APD30,[1]; [4],159
same,APD30 percentage change compared to vehicle control,[1]; [4],2%
same,APD50,[1]; [4],209
same,APD50 percentage change compared to vehicle control,[1]; [4],2%
same,APD90,[1]; [4],284
same,APD90 percentage change compared to vehicle control,[1]; [4],1%
same,Alternans,[1]; [4],0.34
same,Alternans percentage change compared to vehicle control,[1]; [4],-13%
same,Beat Escape,[1]; [4],0
same,Beat Escape percentage change compared to vehicle control,[1]; [4],0%
same,EADs,[1]; [4],0
same,EADs percentage change compared to vehicle control,[1]; [4],0%
same,ERP,[1]; [4],0.44
same,ERP percentage change compared to vehicle control,[1]; [4],4%
same,Max Dispersion,[1]; [4],2.18
same,Max Dispersion percentage change compared to vehicle control,[1]; [4],16%
same,RMP,[1]; [4],-88
same,RMP percentage change compared to vehicle control,[1]; [4],3%
same,Refractoriness Escape,[1]; [4],0
same,Refractoriness Escape percentage change compared to vehicle control,[1]; [4],0%
same,STV,[1]; [4],0.26
same,STV percentage change compared to vehicle control,[1]; [4],-6%
same,Triangulation,[1]; [4],126
same,Triangulation percentage change compared to vehicle control,[1]; [4],1%
same,AMAX,[1]; [5],110
same,AMAX percentage change compared to vehicle control,[1]; [5],2%
same,APD30,[1]; [5],161
same,APD30 percentage change compared to vehicle control,[1]; [5],3%
same,APD50,[1]; [5],213
same,APD50 percentage change compared to vehicle control,[1]; [5],4%
same,APD90,[1]; [5],291
same,APD90 percentage change compared to vehicle control,[1]; [5],4%
same,Alternans,[1]; [5],0.45
same,Alternans percentage change compared to vehicle control,[1]; [5],16%
same,Beat Escape,[1]; [5],0
same,Beat Escape percentage change compared to vehicle control,[1]; [5],0%
same,EADs,[1]; [5],0
same,EADs percentage change compared to vehicle control,[1]; [5],0%
same,ERP,[1]; [5],0.44
same,ERP percentage change compared to vehicle control,[1]; [5],4%
same,Max Dispersion,[1]; [5],2.43
same,Max Dispersion percentage change compared to vehicle control,[1]; [5],29%
same,RMP,[1]; [5],-89
same,RMP percentage change compared to vehicle control,[1]; [5],4%
same,Refractoriness Escape,[1]; [5],0
same,Refractoriness Escape percentage change compared to vehicle control,[1]; [5],0%
same,STV,[1]; [5],0.29
same,STV percentage change compared to vehicle control,[1]; [5],7%
same,Triangulation,[1]; [5],130
same,Triangulation percentage change compared to vehicle control,[1]; [5],5%
same,AMAX,[1]; [6],109
same,AMAX percentage change compared to vehicle control,[1]; [6],1%
same,APD30,[1]; [6],162
same,APD30 percentage change compared to vehicle control,[1]; [6],4%
same,APD50,[1]; [6],222
same,APD50 percentage change compared to vehicle control,[1]; [6],9%
same,APD90,[1]; [6],319
same,APD90 percentage change compared to vehicle control,[1]; [6],14%
same,Alternans,[1]; [6],0.72
same,Alternans percentage change compared to vehicle control,[1]; [6],86%
same,Beat Escape,[1]; [6],0
same,Beat Escape percentage change compared to vehicle control,[1]; [6],0%
same,EADs,[1]; [6],0
same,EADs percentage change compared to vehicle control,[1]; [6],0%
same,ERP,[1]; [6],0.47
same,ERP percentage change compared to vehicle control,[1]; [6],12%
same,Max Dispersion,[1]; [6],3.05
same,Max Dispersion percentage change compared to vehicle control,[1]; [6],63%
same,RMP,[1]; [6],-88
same,RMP percentage change compared to vehicle control,[1]; [6],4%
same,Refractoriness Escape,[1]; [6],0
same,Refractoriness Escape percentage change compared to vehicle control,[1]; [6],0%
same,STV,[1]; [6],0.46
same,STV percentage change compared to vehicle control,[1]; [6],75%
same,Triangulation,[1]; [6],158
same,Triangulation percentage change compared to vehicle control,[1]; [6],28%
same,AMAX,[1]; [7],109
same,AMAX percentage change compared to vehicle control,[1]; [7],1%
same,APD30,[1]; [7],120
same,APD30 percentage change compared to vehicle control,[1]; [7],2%
same,APD50,[1]; [7],163
same,APD50 percentage change compared to vehicle control,[1]; [7],3%
same,APD90,[1]; [7],234
same,APD90 percentage change compared to vehicle control,[1]; [7],2%
same,Alternans,[1]; [7],0.92
same,Alternans percentage change compared to vehicle control,[1]; [7],6%
same,Beat Escape,[1]; [7],0
same,Beat Escape percentage change compared to vehicle control,[1]; [7],0%
same,EADs,[1]; [7],0
same,EADs percentage change compared to vehicle control,[1]; [7],0%
same,ERP,[1]; [7],0.45
same,ERP percentage change compared to vehicle control,[1]; [7],1%
same,Max Dispersion,[1]; [7],3.95
same,Max Dispersion percentage change compared to vehicle control,[1]; [7],12%
same,RMP,[1]; [7],-87
same,RMP percentage change compared to vehicle control,[1]; [7],2%
same,Refractoriness Escape,[1]; [7],0
same,Refractoriness Escape percentage change compared to vehicle control,[1]; [7],0%
same,STV,[1]; [7],0.64
same,Triangulation,[1]; [7],115
same,Triangulation percentage change compared to vehicle control,[1]; [7],1%
same,AMAX,[1]; [8],110
same,AMAX percentage change compared to vehicle control,[1]; [8],2%
same,APD30,[1]; [8],116
same,APD30 percentage change compared to vehicle control,[1]; [8],-1%
same,APD50,[1]; [8],160
same,APD50 percentage change compared to vehicle control,[1]; [8],1%
same,APD90,[1]; [8],233
same,APD90 percentage change compared to vehicle control,[1]; [8],1%
same,Alternans,[1]; [8],0.99
same,Alternans percentage change compared to vehicle control,[1]; [8],14%
same,Beat Escape,[1]; [8],0
same,Beat Escape percentage change compared to vehicle control,[1]; [8],0%
same,EADs,[1]; [8],0
same,EADs percentage change compared to vehicle control,[1]; [8],0%
same,ERP,[1]; [8],0.47
same,ERP percentage change compared to vehicle control,[1]; [8],4%
same,Max Dispersion,[1]; [8],3.93
same,Max Dispersion percentage change compared to vehicle control,[1]; [8],11%
same,RMP,[1]; [8],-88
same,RMP percentage change compared to vehicle control,[1]; [8],4%
same,Refractoriness Escape,[1]; [8],0
same,Refractoriness Escape percentage change compared to vehicle control,[1]; [8],0%
same,STV,[1]; [8],0.66
same,Triangulation,[1]; [8],118
same,Triangulation percentage change compared to vehicle control,[1]; [8],3%
same,AMAX,[1]; [9],110
same,AMAX percentage change compared to vehicle control,[1]; [9],2%
same,APD30,[1]; [9],115
same,APD30 percentage change compared to vehicle control,[1]; [9],-1%
same,APD50,[1]; [9],161
same,APD50 percentage change compared to vehicle control,[1]; [9],2%
same,APD90,[1]; [9],238
same,APD90 percentage change compared to vehicle control,[1]; [9],3%
same,Alternans,[1]; [9],0.83
same,Alternans percentage change compared to vehicle control,[1]; [9],-4%
same,Beat Escape,[1]; [9],0
same,Beat Escape percentage change compared to vehicle control,[1]; [9],0%
same,EADs,[1]; [9],0
same,EADs percentage change compared to vehicle control,[1]; [9],0%
same,ERP,[1]; [9],0.48
same,ERP percentage change compared to vehicle control,[1]; [9],7%
same,Max Dispersion,[1]; [9],2.88
same,Max Dispersion percentage change compared to vehicle control,[1]; [9],-18%
same,RMP,[1]; [9],-88
same,RMP percentage change compared to vehicle control,[1]; [9],3%
same,Refractoriness Escape,[1]; [9],0
same,Refractoriness Escape percentage change compared to vehicle control,[1]; [9],0%
same,STV,[1]; [9],0.63
same,Triangulation,[1]; [9],123
same,Triangulation percentage change compared to vehicle control,[1]; [9],8%
same,AMAX,[1]; [10],108
same,AMAX percentage change compared to vehicle control,[1]; [10],0%
same,APD30,[1]; [10],115
same,APD30 percentage change compared to vehicle control,[1]; [10],-1%
same,APD50,[1]; [10],165
same,APD50 percentage change compared to vehicle control,[1]; [10],5%
same,APD90,[1]; [10],258
same,APD90 percentage change compared to vehicle control,[1]; [10],12%
same,Alternans,[1]; [10],0.78
same,Alternans percentage change compared to vehicle control,[1]; [10],-10%
same,Beat Escape,[1]; [10],0
same,Beat Escape percentage change compared to vehicle control,[1]; [10],0%
same,EADs,[1]; [10],0
same,EADs percentage change compared to vehicle control,[1]; [10],0%
same,ERP,[1]; [10],0.50
same,ERP percentage change compared to vehicle control,[1]; [10],11%
same,Max Dispersion,[1]; [10],2.72
same,Max Dispersion percentage change compared to vehicle control,[1]; [10],-23%
same,RMP,[1]; [10],-87
same,RMP percentage change compared to vehicle control,[1]; [10],2%
same,Refractoriness Escape,[1]; [10],0
same,Refractoriness Escape percentage change compared to vehicle control,[1]; [10],0%
same,STV,[1]; [10],0.55
same,Triangulation,[1]; [10],142
same,Triangulation percentage change compared to vehicle control,[1]; [10],26%
same,Free ETPC,[2],0.006 µM
